According to US20240209011A1, “HETEROAROMATIC PHOSPHONIUM SALTS FOR TREATING CANCER” (FLORATEK PHARMA S.A., priority 2021, published 2024):

How the values were obtained:
Assay type in all cases: cell-based
[1] = tested on: brain cancer cell; test: Activity against brain cancer cells; conditions: brain cancer cell growth; Tables 4A-4D
Description: (§1) Antitumor activity of the compounds and doxorubicin as a positive control was assessed by using the CellTiter-Blue Cell Viability Assay (Promega, #G8082) or CellTiter-Glow® Luminescent Cell Viability assay (Promega #G7572) according to the manufacturer's instructions. The compounds were tested at 5 or 6 concentrations in half-log increments (highest concentration 30 μM or 100 μM) in duplicate or triplicate well conditions.
(§2) Tumor cells were grown at 37° C. in a humidified atmosphere with 5% CO2 in RPMI 1640 or DMEM medium, supplemented with 10% (v/v) fetal calf serum and 50 μg/ml gentamicin for up to 20 passages, and were passaged once or twice weekly. Cells were harvested using TrypLE or PBS buffer containing 1 mM EDTA, and the percentage of viable cells is determined using a CASY Model TI cell counter (OMNI Life Science). Cells were harvested from exponential phase cultures, counted and plated in 96 well flat-bottom microtiter plates at a cell density depending on the cell line's growth rate (4,000-20,000 cells/well depending on the cell line's growth rate, up to 60,000 for hematological cancer cell lines) in RPMI 1640 or DMEM medium supplemented with 10% (v/v) fetal calf serum and 50 μg/ml gentamicin (140 μl/well). Cultures were incubated at 37° C. and 5% CO2 in a humidified atmosphere. After 24 h, 10 μl of test compounds or control medium were added, and left on the cells for another 72 h. Compounds were serially diluted in DMSO, transferred in cell culture medium, and added to the assay plates. The DMSO concentration was kept constant at <0.3% v/v across the assay plate. Viability of cells was quantified by the CellTiter-Blue® cell viability assay (Promega G8081) or CellTiter-Glow® Luminescent Cell Viability assay (Promega #G7572). Fluorescence (FU) was measured by using the EnSpire® multimode plate reader (Perkin Elmer) (excitation X=570 nm, emission λ=600 nm). Luminescence was measured with a microplate luminometer (Promega or PerkinElmer).
(§3) Sigmoidal concentration-response curves were fitted to the data points (test-versus-control, T/C values) obtained for each tumor model using 4 parameter non-linear curve fit (Charles River DRS Datawarehouse Software) or with GraphPad prism 5.02 software. IC50 values are reported as absolute IC50 values, being the concentration of test compound at the intersection of the concentration-response curves with T/C=50% Cell lines tested are presented in Table 1.

[2] = tested on: breast cancer cell; test: Activity against breast cancer cells; conditions: breast cancer cell growth; Tables 5A and B
Description: as §1, §2, §3

[3] = tested on: colon cancer cell; test: Activity against colon cancer cells; conditions: colon cancer cell growth; summary of Tables 7A-7D
Description: as §1, §2, §3

[4] = tested on: leukaemia cell; test: Activity against leukaemia cells; conditions: leukaemia cell growth; Tables 13A and 13B
Description: as §1, §2, §3

[5] = tested on: 22Rv1; test: Cell viability assay (CellTiter-Blue/CellTiter-Glow); conditions: Homo sapiens; prostate carcinoma cell line 22Rv1; absolute IC50; 72 h
Description: as §1, §2, §3

[6] = tested on: HCT-116; test: as above; conditions: Homo sapiens; colon carcinoma cell line HCT-116; absolute IC50; 72 h
Description: as §1, §2, §3

[7] = tested on: HL-60; test: as above; conditions: Homo sapiens; leukaemia cell line HL-60; absolute IC50; 72 h
Description: as §1, §2, §3

[8] = tested on: LNCaP; test: as above; conditions: Homo sapiens; prostate carcinoma cell line LNCaP; absolute IC50; 72 h
Description: as §1, §2, §3

[9] = tested on: LoVo; test: as above; conditions: Homo sapiens; colon carcinoma cell line LoVo; absolute IC50; 72 h
Description: as §1, §2, §3

[10] = tested on: MCF-7; test: as above; conditions: Homo sapiens, MCF7; breast carcinoma cell line MCF-7; absolute IC50; 72 h
Description: as §1, §2, §3

[11] = tested on: MDA-MB-468; test: as above; conditions: Homo sapiens; breast carcinoma cell line MDA-MB-468; absolute IC50; 72 h
Description: as §1, §2, §3

[12] = tested on: PC-3; test: as above; conditions: Homo sapiens; prostate carcinoma cell line PC-3; absolute IC50; 72 h
Description: as §1, §2, §3

[13] = tested on: ovarian cancer cell; test: Activity against ovarian cancer cells; conditions: ovarian cancer cell growth; Tables 18A-18C
Description: as §1, §2, §3

[14] = tested on: pancreatic cancer cell; test: Activity against pancreatic cancer cells; conditions: pancreatic cancer cell growth; Table 19A
Description: as §1, §2, §3

[15] = tested on: prostate cancer cell; test: Activity against prostate cancer cells; conditions: prostate cancer cell growth; text summary of Table 21
Description: as §1, §2, §3

| Structure (SMILES) | IC50 [1] [µM] | IC50 [2] [µM] | IC50 [3] [µM] | IC50 [4] [µM] | IC50 [5] [µM] | IC50 [6] [µM] | IC50 [7] [µM] | IC50 [8] [µM] | IC50 [9] [µM] | IC50 [10] [µM] | IC50 [11] [µM] | IC50 [12] [µM] | IC50 [13] [µM] | IC50 [14] [µM] | IC50 [15] [µM] |
| --- | --- | --- | --- | --- | --- | --- | --- | --- | --- | --- | --- | --- | --- | --- | --- |
| O=c1cc(-c2ccc(CCCC[P+](c3ccccc3)(c3ccccc3)c3ccccc3)cc2)oc2c3c(ccc12)OCO3.[Br-] [SND123, 4-[4-(6-oxo-[1,3]dioxolo[4,5-h]chromen-8-yl)phenyl]butyl-triphenylphosphonium bromide] | < 20 | < 20 | < 20 | < 20 | 1.49 | 2.25 | 1.08 | 1.37 | 1.7 | 6.87 | 0.36 | 1.89 | < 20 | < 20 | < 10 |
| CCNC(=O)Oc1ccc2c(=O)cc(-c3ccc(CCCC[P+](c4ccccc4)(c4ccccc4)c4ccccc4)cc3)oc2c1OC(=O)NCC.[Br-] [SND124, 4-[4-[7,8-Bis(ethylcarbamoyloxy)-4-oxo-chromen-2-yl]phenyl]-butyltriphenylphosphonium bromide] | < 20 | < 20 | < 20 | < 20 | 3.4 | 4.2 | 0.29 | 4 | 21.4 | 2 | 0.5 | 6.3 | < 20 | < 20 | < 10 |
| O=c1cc(-c2ccc(CCCC[P+](c3ccccc3)(c3ccccc3)c3ccccc3)cc2)oc2c(O)c(O)ccc12 [SND118, 4-[4-(7,8-dihydroxy-4-oxo-chromen-2-yl)phenyl]butyltriphenyl-phosphonium bromide] | < 20 | < 20 | < 20 | < 20 | 5.1 | 1.53 | 0.29 | 1.87 | 7.9 | 0.86 | 0.32 | 5.3 | < 20 | < 20 | < 10 |
| COc1c(O)ccc2c(=O)cc(-c3ccc(CCCC[P+](c4ccccc4)(c4ccccc4)c4ccccc4)cc3)oc12.[Br-] [SND140, (4-(4-(7-hydroxy-8-methoxy-4-oxo-4H-chromen-2-yl)phenyl)butyl)triphenylphosphonium bromide] | < 20 | < 20 | < 20 | < 20 | 9 | 10.6 | 0.9 | 6.23 | 16.3 | 4.3 | 2.8 | 8.31 | < 20 | < 20 | < 10 |
| CCNC(=O)Oc1ccc2c(=O)cc(-c3ccc(CCCC[P+](c4ccccc4)(c4ccccc4)c4ccccc4)cc3)oc2c1O.[Br-] [SND126A, 4-[4-[7-(Ethylcarbamoyloxy)-8-hydroxy-4-oxo-chromen-2-yl]phenyl]butyltriphenylphosphonium bromide] | < 20 | < 20 | < 20 | < 20 | 2.39 | 3.56 | 0.58 | 1.95 | 2.94 | 12.9 | 0.56 | 2.91 | < 20 | < 20 | < 10 |
| CC(C)NC(=O)Oc1ccc2c(=O)cc(-c3ccc(CCCC[P+](c4ccccc4)(c4ccccc4)c4ccccc4)cc3)oc2c1O [SND127, 4-[4-[7-(Isopropylcarbamoyloxy)-8-hydroxy-4-oxo-chromen-2-yl]phenyl]butyltriphenylphosphonium bromide] | < 20 | < 20 | < 20 | < 20 | 3.3 | 6.2 | 1.54 | 2 | 8.4 | 6.7 | 0.6 | 5.5 | < 20 | < 20 | < 10 |
